Source: PubChem BioAssay (NCI)
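Exposure lasted 48 hours, with cells grown in 96-well plates and compounds tested at five concentrations. GI50 is the concentration that inhibits growth by half. TGI marks complete inhibition of growth.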

Columns and labels:
Assay in all cases: NCI anticancer screen, dose series, 48 h
A549 NSCLC = tested on: A549 NSCLC
MALME-3M melanoma = tested on: MALME-3M melanoma
MDA-MB-435 = tested on: MDA-MB-435
SF-295 CNS = tested on: SF-295 CNS
SK-MEL-28 melanoma = tested on: SK-MEL-28 melanoma
SR leukemia = tested on: SR leukemia
T-47D breast = tested on: T-47D breast
DU-145 prostate = tested on: DU-145 prostate
MDA-MB-231 breast = tested on: MDA-MB-231 breast
MDA-N = tested on: MDA-N
RXF 393 renal = tested on: RXF 393 renal
DMS 273 small cell lung = tested on: DMS 273 small cell lung
SNB-78 CNS = tested on: SNB-78 CNS

| SMILES | GI50 (A549 NSCLC) [µM] | TGI (A549 NSCLC) [µM] | GI50 (MALME-3M melanoma) [µM] | TGI (MALME-3M melanoma) [µM] | GI50 (MDA-MB-435) [µM] | TGI (MDA-MB-435) [µM] | GI50 (SF-295 CNS) [µM] | TGI (SF-295 CNS) [µM] | GI50 (SK-MEL-28 melanoma) [µM] | TGI (SK-MEL-28 melanoma) [µM] | GI50 (SR leukemia) [µM] | TGI (SR leukemia) [µM] | GI50 (T-47D breast) [µM] | TGI (T-47D breast) [µM] | TGI (DU-145 prostate) [µM] | TGI (MDA-MB-231 breast) [µM] | TGI (MDA-N) [µM] | TGI (RXF 393 renal) [µM] | TGI (DMS 273 small cell lung) [µM] | TGI (SNB-78 CNS) [µM] |
| --- | --- | --- | --- | --- | --- | --- | --- | --- | --- | --- | --- | --- | --- | --- | --- | --- | --- | --- | --- | --- |
| C[C@]12CCc3sc(Nc4ccc(O)cc4)nc3C1=CC[C@@H]1[C@@H]2CC[C@]2(C)C(=O)CC[C@@H]12 | 4.42 | > 100 | 1.81 | 4.03 | 2.08 | 5.32 | 5.26 | 35.9 | 2.08 | 4.75 | 2.72 | > 100 | 1.95 | 5.03 |  |  |  |  |  |  |
| COc1ccc(-c2c3c(nc4nc(SC)nc(SC)c24)CCCC3)cc1OC |  | > 100 |  | > 100 |  | > 100 |  | > 100 |  | > 100 |  | 46.4 |  | > 100 | > 100 | > 100 | > 100 | > 100 |  |  |
| CCc1nnc(-c2nsc3ccccc23)s1 |  | > 100 |  |  |  |  |  |  |  | > 100 |  | > 100 |  |  |  |  |  | > 100 | > 100 | > 100 |
| CCSc1nc(=[N+]2CCCC2)ss1 |  | > 100 |  | > 100 |  | 42.5 |  | > 100 |  | > 100 |  |  |  |  | > 100 | > 100 | > 100 | > 83.3 | > 100 | > 100 |
| NC(=S)N/N=C1\c2ccccc2CCC1CCC1(O)CCc2ccccc2C1=O (stereo not given) |  | > 100 |  | 36.7 |  | 46.4 |  | 59 |  | 45.8 |  | > 100 |  | 28.9 | > 100 | > 100 | 58.4 | 36.3 |  |  |
| CC(c1ccccc1)/[N+]([O-])=C/c1ccccc1 (stereo not given) |  | > 100 |  |  |  |  |  | > 100 |  | > 100 |  |  |  |  |  |  |  | > 100 | > 100 | > 100 |
| O=C(O)CC1OCC=C2CN3CCC45C6=CC(=O)C(=O)C([N+](=O)[O-])=C6NC4C1C2CC35 (stereo not given) |  | > 100 |  | > 100 |  | 31.3 |  | > 100 |  | > 100 |  |  |  | > 100 | > 100 | > 100 | > 100 | > 100 |  |  |
| C/C(=N\NC(=S)Nc1ccc(C)cc1)c1nc2ncccc2[nH]1 |  | 44.7 |  | 37.5 |  | 13.3 |  |  |  | 18.4 |  | > 100 |  | 18 | 13.6 | > 100 | 23.8 |  |  |  |
| CN1CCN(c2cc(-c3cc4ccccc4o3)oc(=O)c2C#N)CC1 |  | > 100 |  | > 100 |  |  |  | > 100 |  | > 100 |  | > 100 |  |  |  |  |  | > 100 | > 100 | > 100 |
| O=C(O)CC1(CC(=O)O)Nc2ccccc2SC1=O |  | > 100 |  | > 100 |  | > 100 |  | > 100 |  | > 100 |  | > 100 |  | > 100 | > 100 | > 100 | > 100 | > 100 |  |  |
| Cc1ccc(Nc2nc(NS(=O)(=O)c3cc(C(=O)Nc4ccc(Cl)cc4)c(Cl)cc3S)n[nH]2)cc1 |  | > 100 |  | > 100 |  | > 100 |  | > 100 |  | > 100 |  | > 100 |  | > 100 | > 100 | > 100 | > 100 | > 100 |  |  |
| CC(CCC(=O)O)C1CCC2C3C(O)CC4CC(O)CCC4(C)C3CC(O)C12C (stereo not given) |  | > 100 |  | > 100 |  | > 100 |  | > 100 |  | > 100 |  | > 100 |  | > 100 | > 100 | > 100 | > 100 | > 100 |  |  |
| CC1OC1C(=O)C1(O)C(C)C(O)C23OC2(C(O)c2c(O)cccc2C3=O)C1O (stereo not given) |  | 0.519 |  | 0.247 |  |  |  | 0.693 |  | 0.682 |  |  |  |  |  |  |  | 0.599 | 0.551 | 3.46 |
| COC1=CC(=O)c2c(O)c3c(c(O)c2C1=O)C=C(C)OC3O (stereo not given) |  | 4.35 |  | 0.877 |  | 2.5 |  | 5.06 |  | 3.65 |  | 5.46 |  | 7.05 | 2.18 | 5.09 | 3.08 | 3.92 | 2.17 | 4.14 |
| O=C(NN1C(=O)CSC1c1ccc(C(F)(F)F)cc1)c1ccncc1 (stereo not given) |  | > 100 |  | > 100 |  |  |  | > 100 |  | > 100 |  |  |  |  |  |  |  | > 100 | > 100 | > 31.6 |
| CCOP(=O)(CN=C(c1ccccc1)c1ccccc1)OCC |  | > 100 |  |  |  | > 100 |  | > 100 |  | > 100 |  | > 100 |  | > 100 | > 100 | > 100 | > 100 |  |  |  |
